Where two headings read alike, the source gives them in different places. Ends that are not written are not given here.
Assays:
Sirtuin 1 = details: cited from earlier work
human SIRT1 [1] = molecular target: T1, human SIRT1 (Homo sapiens, UniProt Q96EB6); assay: Thermal shift assay (TSA) of Sirtuin 1 in the presence of NAD+; type: binding; details: for ΔTm, additional TSA experiment: with NAD+, n = 4; for ΔTm at 10 µM: n = 1, read-out: TSA(with NAD+) Primary screening (TSA) delta Tm (K)
T1 construct: host or cells: Escherichia coli M15
T1 sequence (Q96EB6 with tags, fused parts or gaps): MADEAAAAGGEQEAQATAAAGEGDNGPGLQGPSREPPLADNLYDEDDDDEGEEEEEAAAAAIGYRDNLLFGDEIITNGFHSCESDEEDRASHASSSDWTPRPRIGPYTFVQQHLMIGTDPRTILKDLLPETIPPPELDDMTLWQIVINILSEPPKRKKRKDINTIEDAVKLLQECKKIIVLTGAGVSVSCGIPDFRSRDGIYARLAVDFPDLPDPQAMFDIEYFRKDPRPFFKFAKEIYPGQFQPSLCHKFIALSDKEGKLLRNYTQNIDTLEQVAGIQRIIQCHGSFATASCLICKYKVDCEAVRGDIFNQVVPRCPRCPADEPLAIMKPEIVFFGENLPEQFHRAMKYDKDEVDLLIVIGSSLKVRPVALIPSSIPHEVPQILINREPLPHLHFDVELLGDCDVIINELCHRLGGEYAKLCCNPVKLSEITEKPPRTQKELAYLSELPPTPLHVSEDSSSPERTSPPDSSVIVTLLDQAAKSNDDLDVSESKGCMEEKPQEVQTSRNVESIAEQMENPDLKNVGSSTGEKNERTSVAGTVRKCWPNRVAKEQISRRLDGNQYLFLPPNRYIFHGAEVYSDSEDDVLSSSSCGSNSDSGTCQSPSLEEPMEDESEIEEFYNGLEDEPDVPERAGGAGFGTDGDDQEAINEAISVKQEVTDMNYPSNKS
Description: (§1) A total of 3,192 compounds extracted from the proposed lists were first screened by thermal shift assay (TSA), which determined a melting temperature shift (ΔTm) of Sirtuin 1 upon the addition of a test compound at a concentration of 10 µM (n = 1) with primary hit criteria of ΔTm > 0.45 K or ΔTm < −1.5 K. Primary hits (48 compounds) were retested in the same assay at three concentrations (5, 10, 20 µM, n = 4) for hit confirmation and for dose-dependency check. Secondary hits (41 compounds) were checked their selectivity for Sirtuin 1 based on counterscreening on unrelated protein targets (bovine carbonic anhydrase (CA) and recombinant SH2 domain of hABL1 kinase (ABL1)) at three different concentrations (5, 10, 20 µM, n = 4), which yielded 38 hit compounds, hereafter referred to as TSA hits. The TSA screening above was conducted in the absence of NAD^+. As noted, the structure of Sirtuin 1 is different in the presence of NAD^+ and substrate. The chemical profile of TSA hits found from the different conditions could be different. […] As a result, 39 TSA hits were found. Regardless of the presence of NAD^+, 29 compounds were shared in both TSA hits.
(§2) Table S1. Buffer concentrations used for preparing buffer composition matrix screening plates.
(§3) Buffer Plate 1 (mM) Plate 2 (mM)
(§4) Selection of the optimal buffer composition was based on balancing several criteria including undistorted protein melting curve, maximized melting temperature stability of SIRT1 protein and maximized melting temperature shift induced by the acetylated histone H3K9 peptide (KQTARK(Ac)STGG, a natural substrate of SIRT1). Thermal shift experiments were done at 120 µM H3K9 in the presence of 500 µM NAD+, a co-factor of SIRT1. Separate additions of H3K9 or […]
result, the buffer consisting of 20 mM Tris-HCl pH 8 and 50 mM NaCl was selected for the screening. Purified SIRT1 protein was pre-mixed with SYPRO Orange dye (Thermo Fischer Scientific, Cat. S6650, 5000x stock) to prepare a master mix at 400 µg/mL protein and 10x dye concentration. Tested compounds were added to the protein-dye master mix at 10 µM (1% final DMSO concentration) and incubated for 1 h at 4 °C in MicroAmp® optical 384-well reaction plates (ThermoFisher, Cat. 4309849) sealed with optical sealing film (ThermalSeal RT2, Excel Scientific, Cat. TS-RT2). The volumes of all reaction mixtures were 10 µL (4 µg SIRT1 per well). The reaction plates were then kept at ambient temperature (22-24 °C) for additional 15 minutes to ensure protein-compound interactions. Thermal scanning was performed by raising temperature to 35 °C at 1.6 °C/min without signal detection followed by 35 °C to 75 °C temperature ramp at 0.05 °C/s with constant fluorescence intensity reading at 1 sec intervals using EX470/EM623 nm filter set. Primary screening of the whole test set of 3,192 compounds was carried out in singletons. The raw data of dye fluorescence intensity change upon protein melt were exported using the ViiA7 RUO software (Applied Biosystems/ThermoFischer Scientific). Further data visualization, curve fitting, melting temperature calculations on the raw fluorescence data were performed using custom-made Microsoft Excel scripts developed by us. The peak of the first derivative for the fluorescence curve was used to define melting temperature (Tm). Averaged Tm values for the control wells (64 wells per plate), containing only the protein, dye and 1% DMSO were used as a reference point to determine melting temperature shifts (ΔTm). Hit selection criteria was ΔTm > 0.45 °C or ΔTm < −1.5 °C. All primary hits were re-tested in the same assay at 3 concentrations (20, 10 and 5 µM, n = 4) for hit confirmation

human SIRT1 [2] = molecular target: T1, human SIRT1; assay: SIRT-Glo luminogenic enzymatic inhibitory assay (inhibition rate and IC50); type: biochemical
Description: Note that the inhibitory assay was conducted with NAD^+.
Biochemical enzymatic assay for SIRT1
Luminogenic SIRT-Glo™ assay kit was purchased from Promega Corp. (Madison, WI; USA,
Enzymatic activity of SIRT1 in the presence of test compounds
the SIRT-Glo™ assay according to the manufacturer’s instructions (Promega Technical Manual for
SIRT-Glo™ Assay and Screening System). Briefly, the enzymatic reactions were performed in assay
SIRT1 was added to 3 ng/µL concentration to the wells containing tested compounds diluted in the
DMSO concentration) and the reactions (9 µL per well) were pre-incubated for 30 min at ambient
The enzymatic reactions were started by adding 9 µL of SIRT-Glo™
reagent (proprietary composition undisclosed by the vendor) to each assay well.
vigorous mixing using VibraTranslator (Union Scientific, USA) to ensure homogeneity, the plate
was incubated at the ambient temperature for 40 min. The final reaction volumes per well of a
384-well plate were 18 µL (1.5 ng/µL SIRT1: 20 nM). Luminescence signals were measured using
Omega PolarStar microplate reader (BMG Labtech, Ortenberg, Germany). Luminescence values
from the control plate wells with no added enzyme were used as a baseline.
The eight-point IC50 curve was built using 3x serial dilution
Primary compound dilutions were performed
in DMSO and each concentration was tested in quadruplicate. Assay data was analyzed in GraphPad
Prism,6 using Prism's built-in sigmoidal dose-response curve-fit algorithm and default settings of the
fit. Each error bar represents a standard deviation (SD) of inhibition rates for each concentration.
Dose-response curve (DRC) for SIRT1 inhibition by 20 compounds under SIRT-Glo™
assay conditions described in Section C of this supporting information. The determined IC50 value
The eight-point IC50 curves were built using 3x serial
dilution starting from compound concentration of 100 μM. Primary compound dilutions were
performed in DMSO and each concentration was tested in quadruplicate. Assay data was analyzed in
GraphPad Prism,6 using Prism's built-in sigmoidal dose-response curve-fit algorithm and default
Each bar represents a standard deviation (SD) of inhibition rates for each concentration.

[3] = molecular target: T2, recombinant SH2 domain of hABL1 kinase (ABL1) (Homo sapiens, UniProt P00519); assay: TSA counterscreening on unrelated protein, ABL1 SH2 domain; type: binding; details: without NAD+
T2 construct: recombinant SH2 domain of hABL1 kinase (ABL1)
T2 sequence (P00519 127-217 limits assumed): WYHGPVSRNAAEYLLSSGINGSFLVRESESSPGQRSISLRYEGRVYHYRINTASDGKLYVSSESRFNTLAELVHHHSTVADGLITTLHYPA
Description: as §1

human SIRT1 [4] = molecular target: T1, human SIRT1; assay: Thermal shift assay (TSA) of Sirtuin 1 without NAD+; type: binding; parameters: TSA(without NAD+) Primary screening (TSA) TmD (K): unit not given here; details: for ΔTm, additional TSA experiment: n = 4; for thermal shift in SIRT1 melting curves, separate additions: separate additions of H3K9 (120 µM) or NAD+ (500 µM)
Description: as §1
B. Setup and validation of Protein Thermal Shift Assay.
All tested compounds were obtained from the screening compound collection of Enamine Ltd.
(Kiev, Ukraine). Stock solutions of the tested compounds were prepared at 10 mM in 100% DMSO and were stored at −20 °C until use. All thermal shift assay (TSA) experiments with SIRT1 protein were performed using ViiA™7 real-time PCR System equipped with 384-well heat block (Applied Biosystems, USA). General TSA methodology was adopted from the literature3-5 and experimentally modified in order to optimize conditions for measuring SIRT1 melting temperature shifts upon interaction with small molecules. To define the optimal buffer composition for the TSA procedure, a matrix of common buffers combined on a 96-well plate (Figure S3) was tested in thermal melt experiment on a 384-well plate (each buffer composition in quadruplicate). In addition, each buffer composition shown on Figure S3 was tested at two different buffering component concentrations, as listed in Table S1, resulting in two 384-well plate buffer screening experiments and the total of 192 different buffer compositions tested.
Figure S3. Matrix plate of the buffer compositions assessed for TSA optimization.
(1 picture or pasted object on this page, not shown here)
as §2, §3, §4
result, the buffer consisting of 20 mM Tris-HCl pH 8 and 50 mM NaCl was selected for the screening. Purified SIRT1 protein was pre-mixed with SYPRO Orange dye (Thermo Fischer Scientific, Cat. S6650, 5000x stock) to prepare a master mix at 400 µg/mL protein and 10x dye concentration. Tested compounds were added to the protein-dye master mix at 10 µM (1% final DMSO concentration) and incubated for 1 h at 4 °C in MicroAmp® optical 384-well reaction plates (ThermoFisher, Cat. 4309849) sealed with optical sealing film (ThermalSeal RT2, Excel Scientific, Cat. TS-RT2). The volumes of all reaction mixtures were 10 µL (4 µg SIRT1 per well). The reaction plates were then kept at ambient temperature (22-24 °C) for additional 15 minutes to ensure protein-compound interactions. Thermal scanning was performed by raising temperature to 35 °C at 1.6 °C/min without signal detection followed by 35 °C to 75 °C temperature ramp at 0.05 °C/s with […]

[5] = tested on: bovine carbonic anhydrase (CA); assay: TSA counterscreening on unrelated protein, carbonic anhydrase; type: binding; details: for ΔTm CA: without NAD+
Description: as §1

[6] = final Sirtuin 1 concentration 20 nM, n = 4, read-out: IC50
[7] = 10 μM, without NAD+, read-out: ΔTm Sirtuin 1
[8] = 10 µM, n = 1, read-out: TSA(without NAD+) Primary screening (TSA) delta Tm (K)

Compound: O=C(CNC(=O)c1nc(-c2ccccc2)no1)Nc1ccccc1 [CHEMBL449117]
- Inhibition rate@200 μM (Sirtuin 1; 200 μM): 0.64 (Inhibition rate@200 μM: 28%)[69]

Compound: CC1(C)CC(=O)C2=C(C1)N(NC(=O)c1ccncc1)C1=C(C(=O)CC(C)(C)C1)C2c1ccccc1OCc1ccccc1 [CHEMBL1762050]
- Inh. rate@50 μM (Sirtuin 1; 50 μM): 0.60 (Inh. rate@50 μM = 70%)[71]

Compound: CCNc1ncnc2cc(C(N)=O)sc12 [CHEMBL2332048]
- IC50 (Sirtuin 1): > 50 µM

Compound: COc1ccc(CNCc2c(-c3nnc(SC(C)C)n3-c3ccccc3)n(C)c3ccc(F)cc23)cc1 [CHEMBL2436120]
- Inh. rate@40 μM (Sirtuin 1; 40 μM): 0.65 (Inh. rate@40 μM: 70%)[70]

Compound: COc1ccc(NC(=O)CSc2nnc(Nc3ccc(SC(F)F)cc3)s2)cc1OC [Compound Z21813138]
- ΔTm, additional TSA experiment (human SIRT1 [1]): 0.32 K
- IC50 (human SIRT1 [2]; [6]): 7.7 µM

Compound: O=C1/C(=C\c2cc(Br)cc(Br)c2O)CC/C1=C\c1cc(Br)cc(Br)c1O [Compound Z56773446]
- ΔTm at 5 µM [3]: 0 °C
- ΔTm at 10 µM [3]: 0.1 °C
- ΔTm at 20 µM [3]: 0.2 °C
- ΔTm, additional TSA experiment (human SIRT1 [1]): −0.05 K
- ΔTm at 5 µM (human SIRT1 [4]; without NAD+): 0.4 °C
- ΔTm at 10 µM (human SIRT1 [4]; [7]): 0.6 °C
- ΔTm at 20 µM (human SIRT1 [4]; without NAD+): 1 °C
- IC50 (human SIRT1 [2]; [6]): 4.1 µM
- ΔTm CA ([5]; 5 μM): 0.2 K
- ΔTm CA ([5]; 10 μM): 0.5 K
- ΔTm CA ([5]; 20 μM): 0.5 K

Compound: O=C1NC(=S)NC(=O)C1=Cc1cn(-c2ccccc2)nc1-c1cc2ccccc2o1 [Compound Z62466600]
- ΔTm at 5 µM [3]: -0.2 °C
- ΔTm at 10 µM [3]: 0.1 °C
- ΔTm at 20 µM [3]: 0 °C
- ΔTm at 5 µM (human SIRT1 [4]; without NAD+): 0.2 °C
- ΔTm at 10 µM (human SIRT1 [4]; [7]): 0.3 °C
- ΔTm at 20 µM (human SIRT1 [4]; without NAD+): 0.5 °C
- ΔTm, additional TSA experiment (human SIRT1 [4]; without NAD+): 0.87 K
- IC50 (human SIRT1 [2]): 7.1 µM
- ΔTm CA ([5]; 5 μM): 0.0 K
- ΔTm CA ([5]; 10 μM): 0.0 K
- ΔTm CA ([5]; 20 μM): 0.0 K

Compound: O=C1NC(=O)c2ccccc2/C1=C\NNC(=O)C12CC3CC(CC(C3)C1)C2 [Compound Z165047618]
- ΔTm, additional TSA experiment (human SIRT1 [4]; without NAD+): −0.03 K
- IC50 (human SIRT1 [2]; final Sirtuin 1 concentration 30 nM (compounds marked *), n = 4, read-out: IC50): 13 µM

Compound: Cc1nc(-c2ccc(CCNC(=O)c3ccc(NC(=O)c4cccs4)cc3)s2)cs1 [Compound Z165049452]
- IC50 (human SIRT1 [2]; [6]): 12 µM

Compound: NCc1nc2c(cnn2-c2ccccc2)c(=O)[nH]1 [Compound Z235344735]
- IC50 (human SIRT1 [2]; [6]): 7.6 µM

Compound: Cc1ccc(C(=O)Nc2nc3ccc(NS(=O)(=O)c4ccc5c(c4)CCC(=O)N5)cc3s2)s1 [Compound Z605844126]
- IC50 (human SIRT1 [2]; [6]): 15 µM

Compound: Cc1ccc(C(CNC(=O)c2ccc(C(N)=O)cc2)N2CCCC2)o1 (stereo not shown) [Compound Z1001367730]
- ΔTm at 10 µM (human SIRT1 [1]): -0.11 °C
- TSA(without NAD+) Primary screening (TSA) TmD (K) (human SIRT1 [4]; 10 µM, n = 1): 49.64
- ΔTm at 10 µM (human SIRT1 [4]; [8]): -0.08 °C

Compound: CC(Nc1ccc2nnnn2n1)c1ccc(Oc2ccccc2)cc1 (stereo not shown) [Compound Z1002316132]
- ΔTm at 10 µM (human SIRT1 [1]): 0.09 °C
- TSA(without NAD+) Primary screening (TSA) TmD (K) (human SIRT1 [4]; 10 µM, n = 1): 49.54
- ΔTm at 10 µM (human SIRT1 [4]; [8]): -0.05 °C

Compound: O=c1[nH]c2ccc(S(=O)(=O)NCc3cc4ccccc4[nH]3)cc2[nH]1 [Compound Z1003449802]
- ΔTm at 10 µM (human SIRT1 [1]): 0.68 °C
- TSA(without NAD+) Primary screening (TSA) TmD (K) (human SIRT1 [4]; 10 µM, n = 1): 49.54
- ΔTm at 10 µM (human SIRT1 [4]; [8]): -0.07 °C
- TSA(with NAD+) Counter Screening (Carbonic anhydrase AND Abl kinase SH2 domain) Good/Bad ([5]; combined verdict on CA and Abl SH2, TSA flow with NAD+): Bad

Compound: NC(=O)c1ccc[n+]([C@@H]2O[C@H](COP(=O)([O-])OP(=O)(O)OC[C@H]3O[C@@H](n4cnc5c(N)ncnc54)[C@H](O)[C@@H]3O)[C@@H](O)[C@H]2O)c1 [NAD+, nicotinamide adenine dinucleotide]
- thermal shift in SIRT1 melting curves, separate additions (human SIRT1 [4]): did not cause any thermal shift

Compound: histone H3K9 peptide: acetylated histone H3K9 peptide (KQTARK(Ac)STGG, a natural substrate of SIRT1) (UniProt P68431 5-14, looked up, fragment) [reference compound]
- Peptide induced thermal shift (human SIRT1 [1]; 120 µM H3K9 in the presence of 500 µM NAD+): +1.2 °C
- thermal shift in SIRT1 melting curves, separate additions (human SIRT1 [4]): did not cause any thermal shift

Reference: PMC6925144, “A prospective compound screening contest identified broader inhibitors for Sirtuin 1” (Scientific Reports, 2019)
